The text below walks through data of patent US20030212123A1, “COX-2 selective carprofen for treating pain and inflammation in dogs” (Pfizer Inc., priority 1997, published 2003).

One data set deals with T1, canine COX-2 (Canis lupus familiaris, UniProt Q8SPQ9).
T1 construct: host or cells: DH82 canine histocytoma cells, LPS-treated overnight
T1 sequence (Q8SPQ9 18-604): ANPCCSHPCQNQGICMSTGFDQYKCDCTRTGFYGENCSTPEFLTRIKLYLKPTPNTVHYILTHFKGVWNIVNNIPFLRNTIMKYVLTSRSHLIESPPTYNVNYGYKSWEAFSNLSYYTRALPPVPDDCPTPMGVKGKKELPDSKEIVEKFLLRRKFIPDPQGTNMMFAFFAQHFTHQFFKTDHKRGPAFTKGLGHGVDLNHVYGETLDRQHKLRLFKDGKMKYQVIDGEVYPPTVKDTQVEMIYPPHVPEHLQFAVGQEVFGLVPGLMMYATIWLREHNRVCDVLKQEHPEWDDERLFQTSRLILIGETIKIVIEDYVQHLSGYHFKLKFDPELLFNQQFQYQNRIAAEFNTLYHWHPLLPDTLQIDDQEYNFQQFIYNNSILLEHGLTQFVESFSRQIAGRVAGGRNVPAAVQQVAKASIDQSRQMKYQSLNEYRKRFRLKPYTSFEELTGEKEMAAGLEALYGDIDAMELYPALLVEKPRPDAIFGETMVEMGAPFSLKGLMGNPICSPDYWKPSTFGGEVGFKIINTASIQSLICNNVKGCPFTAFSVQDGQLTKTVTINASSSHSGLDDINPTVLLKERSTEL
The data set is described as follows: Canine COX-2 activity: LPS-treated DH82 canine histocytoma cells, PGE2 by EIA. It counts as cell-based, dog. How it is done: Protocol for Evaluation of Canine COX-2 Activity
A canine histocytoma (macrophage-like) cell line from the American Type Culture Collection designated as DH82, was used in setting up the protocol for evaluating the COX-2 inhibition activity of various test drug compounds. There was added to flasks of these cells 10 μg/mL of LPS, after which the flask cultures were incubated overnight. The same test drug compound dilutions as described above for the COX-1 protocol were used for the COX-2 assay and were prepared the day before the assay was carried out. […] The test sample suspensions were incubated for 1 hr and then centrifuged at 1000 rpm for 10 min at 4° C., after which 50 μl aliquots of each test drug sample were delivered to EIA plates. The EIA was performed for prostaglandin E2 (PGE2), and the pg/mL concentration of PGE2 was calculated from the standard line included on each plate. […] The results were averaged, and a single COX-1:COX-2 ratio was calculated.

Data set [1] can be described thus: Total plasma carprofen concentration by chiral HPLC, Example 3. It counts as in vivo, dog. Conditions: individual dogs.
Text: (§1) The ether layer was separated, then back-extracted with 0.005 M Na2CO3, after which the organic phase was discarded by aspiration. The aqueous phase was buffered with 0.05 M citric acid pH 5.1, then was again extracted with diethyl ether:dichloromethane. The ether was then transferred to clean tubes, evaporated under a stream of nitrogen, and the residue reconstituted in HPLC mobile phase for analysis.
as §1

Another data set has as its target T2, COX-1 (Canis lupus familiaris, UniProt Q8HZR1).
T2 construct: using an ex vivo procedure on canine whole blood; from tissue; host or cells: whole blood of dosed dogs, stimulated with calcium ionophore A23187
T2 sequence (Q8HZR1 28-603): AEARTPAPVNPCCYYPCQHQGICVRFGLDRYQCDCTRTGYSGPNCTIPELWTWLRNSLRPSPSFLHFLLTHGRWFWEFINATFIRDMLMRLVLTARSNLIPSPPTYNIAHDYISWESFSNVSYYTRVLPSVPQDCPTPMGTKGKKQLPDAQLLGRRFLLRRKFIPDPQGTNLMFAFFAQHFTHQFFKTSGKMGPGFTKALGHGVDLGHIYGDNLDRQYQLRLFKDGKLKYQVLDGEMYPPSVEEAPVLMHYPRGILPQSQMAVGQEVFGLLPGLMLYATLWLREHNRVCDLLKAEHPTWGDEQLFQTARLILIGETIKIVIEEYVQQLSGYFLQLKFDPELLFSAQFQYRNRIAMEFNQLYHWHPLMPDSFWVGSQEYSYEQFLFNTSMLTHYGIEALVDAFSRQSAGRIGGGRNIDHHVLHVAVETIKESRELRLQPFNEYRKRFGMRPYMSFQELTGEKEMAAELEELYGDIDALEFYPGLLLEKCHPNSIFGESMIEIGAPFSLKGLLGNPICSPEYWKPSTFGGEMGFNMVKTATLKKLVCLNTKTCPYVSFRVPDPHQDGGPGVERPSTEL
The data set is described as follows: Ex vivo COX-1 whole blood assay (TXB2) run in the carrageenan study, Example 4. Further details: species or system dog. The conditions noted are these: 2 mg/kg PO, any of the timepoints tested. An excerpt: The experiment was run in two replicates.
Table 5 illustrates that carrageenan induced almost a 4-fold increase in PGE2 synthesis in the whiffle ball over background levels.

The nature of data set [2]: Systemic clearance estimated from oral pharmacokinetics. It counts as in vivo, dog. Conditions: estimated from pharmacokinetics after oral 2 mg/lb to dogs, F assumed 1, AUC extrapolated to infinity. Here is the method:
where Css is the steady state plasma carprofen concentration, R0 is the input rate, and Cl is the systemic clearance.
where F is the bioavailability (assumed to be 1 for an implant), D is the oral dose, and AUC is the average area under the plasma carprofen concentration vs. time curve, extrapolated to infinity.
A total dose of 3.6 mg/lb or 8.4 mg/lb or 36 mg/lb would be required for 3, 7, or 30 day therapy, respectively. In summary, an implant containing 8.4 mg carprofen per lb body weight, releasing carprofen at a rate of 50 μg per lb of body weight per hr, maintains a plasma carprofen concentration of 10 μg/mL for 7 days. This will maintain 80% COX-2 inhibition for 7 days.

Molecules are shown by their SMILES. Values joined by “and” are separate entries in the source; they are usually repeats but may differ in a detail not shown here. Identical values can stand only once.

The IC50 is the midpoint of a concentration-inhibition curve.

Compound `CC(C(=O)O)c1ccc2c(c1)[nH]c1ccc(Cl)cc12` (racemic) [Carprofen (rac.), 6-chloro-α-methyl-9H-carbazole-2-acetic acid] registered an IC50 on canine COX-2 of 102 nM. Besides, the “Plasma concentration” value in data set [1] (2 mg/kg PO tablet, 2-hour) is 21900 ng/mL and 8600 ng/mL and 17200 ng/mL; in data set [1] (2 mg/kg PO tablet, 4-hour) it was 13400 ng/mL and 5700 ng/mL and 10600 ng/mL; in data set [1] (4 mg/kg PO tablet, 2-hour), 29900 ng/mL and 29000 ng/mL; in data set [1] (4 mg/kg PO tablet, 4-hour) it was 21100 ng/mL and 27000 ng/mL. This compound came in with a concentration at 2 h in data set [1] (dog, plasma, oral, 4 mg/kg, 4 mg/kg PO tablet, 2-hour) of 37600 ng/mL. Besides, the concentration at 4 h in data set [1] (dog, plasma, oral, 4 mg/kg, 4 mg/kg PO tablet, 4-hour) stood at 29100 ng/mL. The “ex vivo COX-1 inhibition of TXB2” value at COX-1 is on record as “no inhibition of TXB2”. The “systemic clearance Cl” value in data set [2] is given as 5 mL/hr per lb body weight.
